{"source": "paper PMC9021288", "about": "(Nature Communications, 2022)", "key": {"hCaV 1.2": {"biological_target": "T1, hCaV 1.2 (Homo sapiens, UniProt Q13936)", "T1 construct": "Metrion Biosciences", "assay": "Manual patch clamp", "assay_type": "cell-based", "conditions": "for Minimum current: single cells and Mean, mean", "method": "(§1) Safety studies were performed by commercial services using their standard protocols. […] Genotoxicity was investigated using the Ames test (Bacterial Reverse Mutation Assay) (Covance Laboratories Ltd, North Yorkshire, England). In vitro mammalian cell micronucleus screening assay was studied in human peripheral blood lymphocytes (BioReliance Corporation, Rockville, USA). Cardiotoxicity was determined against the hERG channel in an automated patch clamp assay using the Qpatch or against the hNaV 1.5, hKV 1.5 and hCaV 1.2 using a manual patch-clamp technique (Metrion Biosciences, Cambridge, UK). Cytotoxicity in human and rat primary hepatocytes was assessed using the CellTiter-Blue assay performed by commercial services (KaLy-Cell). The viability of HepG2 cells was monitored through the addition of 1 mM resazurin. Following 6 h incubation, the relative amount of reduced resazurin was detected in a fluorimeter and compared to the assay controls (vehicle: 0.1% DMSO and positive control: 10 µM puromycin)."}, "hNaV 1.5": {"biological_target": "T2, hNaV 1.5 (Homo sapiens, UniProt Q14524)", "T2 construct": "Metrion Biosciences", "T2 sequence (Q14524 whole entry)": "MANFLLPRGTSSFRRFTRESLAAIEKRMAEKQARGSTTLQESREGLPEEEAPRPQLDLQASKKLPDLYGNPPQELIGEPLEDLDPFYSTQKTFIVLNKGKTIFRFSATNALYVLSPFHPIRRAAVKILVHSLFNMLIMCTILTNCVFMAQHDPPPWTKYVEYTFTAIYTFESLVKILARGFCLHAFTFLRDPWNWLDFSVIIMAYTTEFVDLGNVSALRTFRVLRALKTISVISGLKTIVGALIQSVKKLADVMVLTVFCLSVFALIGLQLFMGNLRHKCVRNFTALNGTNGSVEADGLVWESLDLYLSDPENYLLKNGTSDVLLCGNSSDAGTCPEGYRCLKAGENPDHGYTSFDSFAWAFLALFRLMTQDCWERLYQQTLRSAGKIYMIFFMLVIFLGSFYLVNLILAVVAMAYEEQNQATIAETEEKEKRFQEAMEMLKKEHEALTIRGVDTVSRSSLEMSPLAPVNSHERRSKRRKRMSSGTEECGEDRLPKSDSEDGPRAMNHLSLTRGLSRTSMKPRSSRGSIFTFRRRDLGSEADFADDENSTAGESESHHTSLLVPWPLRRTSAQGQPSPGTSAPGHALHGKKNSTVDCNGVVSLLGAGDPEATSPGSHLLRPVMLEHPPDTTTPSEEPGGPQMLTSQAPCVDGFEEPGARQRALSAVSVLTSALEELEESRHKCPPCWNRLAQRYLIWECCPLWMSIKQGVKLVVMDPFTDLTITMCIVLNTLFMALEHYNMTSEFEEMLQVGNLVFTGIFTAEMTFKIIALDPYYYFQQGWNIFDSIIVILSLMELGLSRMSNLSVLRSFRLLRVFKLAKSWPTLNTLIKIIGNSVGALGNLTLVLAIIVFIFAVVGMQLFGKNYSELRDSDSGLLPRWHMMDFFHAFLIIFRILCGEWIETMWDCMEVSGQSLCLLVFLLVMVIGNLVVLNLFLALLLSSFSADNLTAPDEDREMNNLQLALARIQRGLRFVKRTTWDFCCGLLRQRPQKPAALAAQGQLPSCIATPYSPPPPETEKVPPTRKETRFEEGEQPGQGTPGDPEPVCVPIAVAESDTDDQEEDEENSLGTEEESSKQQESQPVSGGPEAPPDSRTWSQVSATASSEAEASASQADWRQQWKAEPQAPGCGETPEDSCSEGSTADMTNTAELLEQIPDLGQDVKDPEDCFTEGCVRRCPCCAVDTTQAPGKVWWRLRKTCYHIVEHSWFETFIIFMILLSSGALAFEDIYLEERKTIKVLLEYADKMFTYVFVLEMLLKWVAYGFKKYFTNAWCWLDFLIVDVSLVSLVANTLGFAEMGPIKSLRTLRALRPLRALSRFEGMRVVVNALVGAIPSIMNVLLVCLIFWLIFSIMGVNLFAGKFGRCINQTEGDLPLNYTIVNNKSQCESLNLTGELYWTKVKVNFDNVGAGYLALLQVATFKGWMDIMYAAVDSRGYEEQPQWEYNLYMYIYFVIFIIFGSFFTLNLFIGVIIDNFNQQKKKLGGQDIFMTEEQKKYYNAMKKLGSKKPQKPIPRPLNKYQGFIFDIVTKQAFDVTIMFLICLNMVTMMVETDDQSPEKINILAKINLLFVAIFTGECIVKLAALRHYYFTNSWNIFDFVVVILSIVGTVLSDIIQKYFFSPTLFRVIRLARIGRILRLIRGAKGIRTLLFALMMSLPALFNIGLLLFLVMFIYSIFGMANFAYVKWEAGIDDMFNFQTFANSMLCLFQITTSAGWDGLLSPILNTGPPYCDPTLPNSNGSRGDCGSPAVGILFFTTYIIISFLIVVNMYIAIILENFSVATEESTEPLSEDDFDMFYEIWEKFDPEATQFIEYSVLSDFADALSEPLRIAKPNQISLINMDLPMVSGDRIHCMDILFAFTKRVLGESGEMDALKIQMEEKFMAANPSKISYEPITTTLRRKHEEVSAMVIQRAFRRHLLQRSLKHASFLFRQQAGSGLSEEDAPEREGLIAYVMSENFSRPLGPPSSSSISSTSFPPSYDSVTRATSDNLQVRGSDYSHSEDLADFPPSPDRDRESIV", "assay": "Manual patch clamp", "assay_type": "cell-based", "conditions": "for Minimum current: single cells and Mean, mean", "method": "as §1"}, "[1]": {"biological_target": "T3, human recombinant CYP2C19 (Homo sapiens, UniProt P33261)", "T3 construct": "purchased Bactosomes (assay run at Cyprotex)", "T3 sequence (P33261 whole entry)": "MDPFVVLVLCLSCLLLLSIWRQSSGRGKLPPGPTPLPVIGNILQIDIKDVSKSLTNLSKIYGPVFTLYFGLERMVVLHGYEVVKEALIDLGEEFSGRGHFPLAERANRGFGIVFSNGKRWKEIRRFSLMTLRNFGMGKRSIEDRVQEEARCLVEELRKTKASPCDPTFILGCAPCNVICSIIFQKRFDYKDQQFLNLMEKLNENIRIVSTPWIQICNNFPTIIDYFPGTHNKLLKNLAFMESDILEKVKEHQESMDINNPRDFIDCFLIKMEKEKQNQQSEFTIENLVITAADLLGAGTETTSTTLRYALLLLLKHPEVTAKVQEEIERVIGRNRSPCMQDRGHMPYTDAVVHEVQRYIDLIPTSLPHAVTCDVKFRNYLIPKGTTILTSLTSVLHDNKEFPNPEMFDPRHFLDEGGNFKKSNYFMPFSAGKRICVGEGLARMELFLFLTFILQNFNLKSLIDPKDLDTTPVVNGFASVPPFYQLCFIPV", "assay": "CYP reaction phenotyping", "assay_type": "in vitro ADME", "conditions": "for Compound remaining (0 min = 100): CYP2C19", "method": "(§2) In vitro CYP reaction phenotyping was performed at Cyprotex (Alderly Park, United Kingdom). […] The remaining test compound at each time point was analyzed by LC-MS/MS."}, "human recombinant CYP2B6": {"biological_target": "T4, human recombinant CYP2B6 (Homo sapiens, UniProt P20813)", "T4 construct": "purchased Bactosomes (assay run at Cyprotex)", "T4 sequence (P20813 1-491)": "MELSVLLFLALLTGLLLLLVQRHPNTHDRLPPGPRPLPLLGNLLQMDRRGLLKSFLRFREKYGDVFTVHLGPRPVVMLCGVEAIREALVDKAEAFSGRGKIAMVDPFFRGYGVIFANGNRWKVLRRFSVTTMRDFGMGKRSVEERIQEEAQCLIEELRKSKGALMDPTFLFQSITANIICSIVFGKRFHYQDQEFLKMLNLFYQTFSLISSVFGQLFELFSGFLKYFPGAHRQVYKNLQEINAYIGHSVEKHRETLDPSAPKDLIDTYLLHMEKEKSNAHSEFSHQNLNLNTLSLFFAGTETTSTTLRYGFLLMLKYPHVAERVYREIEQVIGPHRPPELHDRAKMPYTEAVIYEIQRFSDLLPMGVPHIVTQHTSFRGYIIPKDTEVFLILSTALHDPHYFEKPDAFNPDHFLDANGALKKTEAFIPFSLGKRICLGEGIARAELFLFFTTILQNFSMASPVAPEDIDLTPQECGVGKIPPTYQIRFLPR", "assay": "CYP reaction phenotyping", "assay_type": "in vitro ADME", "method": "as §2"}, "human recombinant CYP3A4": {"biological_target": "T5, human recombinant CYP3A4 (Homo sapiens, UniProt P08684)", "T5 construct": "purchased Bactosomes (assay run at Cyprotex)", "T5 sequence (P08684 whole entry)": "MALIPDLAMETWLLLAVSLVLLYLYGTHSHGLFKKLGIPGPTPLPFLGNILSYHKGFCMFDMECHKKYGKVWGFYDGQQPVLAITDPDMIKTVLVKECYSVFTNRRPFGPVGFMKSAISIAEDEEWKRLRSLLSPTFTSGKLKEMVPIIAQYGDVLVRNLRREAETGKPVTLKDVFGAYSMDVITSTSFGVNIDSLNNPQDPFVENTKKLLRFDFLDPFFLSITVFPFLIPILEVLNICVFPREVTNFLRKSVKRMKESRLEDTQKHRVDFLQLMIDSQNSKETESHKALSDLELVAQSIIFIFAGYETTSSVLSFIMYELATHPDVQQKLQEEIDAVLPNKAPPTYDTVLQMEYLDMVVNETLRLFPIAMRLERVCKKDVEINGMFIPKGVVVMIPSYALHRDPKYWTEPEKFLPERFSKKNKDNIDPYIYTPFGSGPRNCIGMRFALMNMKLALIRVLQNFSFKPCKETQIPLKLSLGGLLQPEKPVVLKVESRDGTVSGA", "assay": "CYP reaction phenotyping", "assay_type": "in vitro ADME", "conditions": "for Compound remaining (0 min = 100): CYP3A4", "method": "as §2"}, "human recombinant CYP2C9": {"biological_target": "T6, human recombinant CYP2C9 (Homo sapiens, UniProt P11712)", "T6 construct": "purchased Bactosomes (assay run at Cyprotex)", "T6 sequence (P11712 whole entry)": "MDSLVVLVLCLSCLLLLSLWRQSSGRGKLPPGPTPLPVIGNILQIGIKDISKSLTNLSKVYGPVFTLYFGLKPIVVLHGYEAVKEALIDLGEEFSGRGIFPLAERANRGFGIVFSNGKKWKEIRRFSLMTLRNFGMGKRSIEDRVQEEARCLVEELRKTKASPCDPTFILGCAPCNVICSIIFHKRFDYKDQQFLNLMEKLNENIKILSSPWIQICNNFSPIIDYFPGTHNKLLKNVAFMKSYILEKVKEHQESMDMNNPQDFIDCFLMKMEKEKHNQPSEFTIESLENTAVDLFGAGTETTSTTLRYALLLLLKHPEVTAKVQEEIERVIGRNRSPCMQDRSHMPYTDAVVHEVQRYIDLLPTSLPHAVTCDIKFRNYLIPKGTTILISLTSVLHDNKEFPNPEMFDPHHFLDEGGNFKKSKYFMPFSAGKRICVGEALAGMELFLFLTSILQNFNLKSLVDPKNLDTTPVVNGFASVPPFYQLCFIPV", "assay": "CYP reaction phenotyping", "assay_type": "in vitro ADME", "method": "as §2"}, "human recombinant CYP2D6": {"biological_target": "T7, human recombinant CYP2D6 (Homo sapiens, UniProt P10635)", "T7 construct": "purchased Bactosomes (assay run at Cyprotex)", "T7 sequence (P10635 whole entry)": "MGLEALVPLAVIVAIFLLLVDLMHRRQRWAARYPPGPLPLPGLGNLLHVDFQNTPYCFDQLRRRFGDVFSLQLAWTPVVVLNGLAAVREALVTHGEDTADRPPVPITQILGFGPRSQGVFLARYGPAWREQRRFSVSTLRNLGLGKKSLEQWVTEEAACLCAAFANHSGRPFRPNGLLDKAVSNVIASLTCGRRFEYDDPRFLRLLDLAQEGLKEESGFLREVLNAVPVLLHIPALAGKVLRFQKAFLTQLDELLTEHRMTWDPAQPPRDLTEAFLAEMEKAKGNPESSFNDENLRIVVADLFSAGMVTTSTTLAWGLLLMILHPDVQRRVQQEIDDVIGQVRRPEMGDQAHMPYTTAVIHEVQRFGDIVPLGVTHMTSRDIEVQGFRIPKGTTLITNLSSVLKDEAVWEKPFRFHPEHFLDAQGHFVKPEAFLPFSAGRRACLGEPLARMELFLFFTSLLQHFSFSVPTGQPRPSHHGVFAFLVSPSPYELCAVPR", "assay": "CYP reaction phenotyping", "assay_type": "in vitro ADME", "method": "as §2"}, "human recombinant CYP3A5": {"biological_target": "T8, human recombinant CYP3A5 (Homo sapiens, UniProt P20815)", "T8 construct": "purchased Bactosomes (assay run at Cyprotex)", "T8 sequence (P20815 whole entry)": "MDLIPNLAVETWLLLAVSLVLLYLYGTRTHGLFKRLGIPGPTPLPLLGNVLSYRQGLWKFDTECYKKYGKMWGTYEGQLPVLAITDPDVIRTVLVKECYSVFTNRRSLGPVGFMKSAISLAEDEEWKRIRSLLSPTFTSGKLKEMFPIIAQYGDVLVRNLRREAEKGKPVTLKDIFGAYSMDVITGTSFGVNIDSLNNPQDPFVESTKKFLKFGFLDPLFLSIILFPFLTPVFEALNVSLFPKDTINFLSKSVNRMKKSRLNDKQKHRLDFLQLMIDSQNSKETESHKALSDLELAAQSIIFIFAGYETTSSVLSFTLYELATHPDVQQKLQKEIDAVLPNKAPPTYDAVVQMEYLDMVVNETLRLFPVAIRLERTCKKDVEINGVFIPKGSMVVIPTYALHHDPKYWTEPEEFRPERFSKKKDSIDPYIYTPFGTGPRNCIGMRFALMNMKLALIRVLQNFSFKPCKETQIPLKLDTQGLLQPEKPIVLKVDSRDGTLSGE", "assay": "CYP reaction phenotyping", "assay_type": "in vitro ADME", "conditions": "for Compound remaining (0 min = 100): CYP3A5", "method": "as §2"}, "human recombinant CYP1A2": {"biological_target": "T9, human recombinant CYP1A2 (Homo sapiens, UniProt P05177)", "T9 construct": "purchased Bactosomes (assay run at Cyprotex)", "T9 sequence (P05177 1-516)": "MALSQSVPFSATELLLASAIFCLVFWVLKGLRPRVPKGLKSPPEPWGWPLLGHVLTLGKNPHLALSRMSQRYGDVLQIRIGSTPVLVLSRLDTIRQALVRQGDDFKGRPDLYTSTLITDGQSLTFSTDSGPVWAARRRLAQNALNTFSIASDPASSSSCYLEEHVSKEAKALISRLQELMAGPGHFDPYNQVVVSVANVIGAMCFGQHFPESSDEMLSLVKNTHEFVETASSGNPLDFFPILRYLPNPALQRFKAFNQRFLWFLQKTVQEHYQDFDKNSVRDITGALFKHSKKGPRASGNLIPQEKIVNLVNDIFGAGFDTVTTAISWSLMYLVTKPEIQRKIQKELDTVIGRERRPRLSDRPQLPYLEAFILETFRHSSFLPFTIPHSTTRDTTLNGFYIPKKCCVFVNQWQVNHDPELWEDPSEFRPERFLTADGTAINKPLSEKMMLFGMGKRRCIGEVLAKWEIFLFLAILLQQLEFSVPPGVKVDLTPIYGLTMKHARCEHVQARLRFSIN", "assay": "CYP reaction phenotyping", "assay_type": "in vitro ADME", "method": "as §2"}}, "data": [{"smiles": "C[C@@H](CNC(=O)[C@H](O)C(C)(C)CO)NC(=O)c1cc(F)c(F)cc1F", "note": "[MMV693183]", "values": [{"measurement": "Inhibition", "setting": "hCaV 1.2; 10 µM", "result": 24.20, "unit": "%"}, {"measurement": "Minimum current", "setting": "hCaV 1.2; Cav1.2, 0.3uM", "result": 4.49, "unit": "%"}, {"measurement": "Minimum current", "setting": "hCaV 1.2; Cav1.2, 1uM", "result": 7.60, "unit": "%"}, {"measurement": "Minimum current", "setting": "hCaV 1.2; Cav1.2, 10uM", "result": 24.20, "unit": "%"}, {"measurement": "IC50", "setting": "hCaV 1.2; hCaV 1.2", "result": "> 10", "unit": "µM"}, {"measurement": "Inhibition", "setting": "hNaV 1.5; 10 µM", "result": 1.56, "unit": "%"}, {"measurement": "IC50", "setting": "hNaV 1.5; hNav 1.5", "result": "> 10", "unit": "µM"}, {"measurement": "Minimum current", "setting": "hNaV 1.5; hNav1.5, 300nM, P1", "result": 1.33, "unit": "%"}, {"measurement": "Minimum current", "setting": "hNaV 1.5; hNav1.5, 300nM, P10", "result": 2.55, "unit": "%"}, {"measurement": "Minimum current", "setting": "hNaV 1.5; hNav1.5, 1uM, P10", "result": 0.96, "unit": "%"}, {"measurement": "Minimum current", "setting": "hNaV 1.5; hNav1.5, 3uM, P1", "result": -2.90, "unit": "%"}, {"measurement": "Minimum current", "setting": "hNaV 1.5; hNav1.5, 3uM, P10", "result": 2.43, "unit": "%"}, {"measurement": "Minimum current", "setting": "hNaV 1.5; hNav1.5, 10uM, P1", "result": -1.24, "unit": "%"}, {"measurement": "Minimum current", "setting": "hNaV 1.5; hNav1.5, 10uM, P10", "result": 1.56, "unit": "%"}, {"measurement": "role in oxidative metabolism", "setting": "[1]; 1 µM, 45 min, to a lower extent", "result": "responsible for the oxidative metabolism"}, {"measurement": "Compound remaining (0 min = 100)", "setting": "[1]; Incubation time (minutes) 0", "result": 100}, {"measurement": "Compound remaining (0 min = 100)", "setting": "[1]; Incubation time (minutes) 5", "result": 98.6}, {"measurement": "Compound remaining (0 min = 100)", "setting": "[1]; Incubation time (minutes) 15", "result": 92.4}, {"measurement": "Compound remaining (0 min = 100)", "setting": "[1]; Incubation time (minutes) 30", "result": 93.6}, {"measurement": "Compound remaining (0 min = 100)", "setting": "[1]; Incubation time (minutes) 45", "result": 95.9}, {"measurement": "Compound remaining (0 min = 100)", "setting": "human recombinant CYP2B6; Incubation time (minutes) 0", "result": 100}, {"measurement": "Compound remaining (0 min = 100)", "setting": "human recombinant CYP2B6; Incubation time (minutes) 5", "result": 101}, {"measurement": "Compound remaining (0 min = 100)", "setting": "human recombinant CYP2B6; Incubation time (minutes) 15", "result": 104}, {"measurement": "Compound remaining (0 min = 100)", "setting": "human recombinant CYP2B6; Incubation time (minutes) 30", "result": 97.8}, {"measurement": "Compound remaining (0 min = 100)", "setting": "human recombinant CYP2B6; Incubation time (minutes) 45", "result": 97.9}, {"measurement": "role in oxidative metabolism", "setting": "human recombinant CYP3A4; 1 µM, 45 min", "result": "responsible for the oxidative metabolism"}, {"measurement": "Compound remaining (0 min = 100)", "setting": "human recombinant CYP3A4; Incubation time (minutes) 0", "result": 100}, {"measurement": "Compound remaining (0 min = 100)", "setting": "human recombinant CYP3A4; Incubation time (minutes) 5", "result": 101}, {"measurement": "Compound remaining (0 min = 100)", "setting": "human recombinant CYP3A4; Incubation time (minutes) 15", "result": 94.1}, {"measurement": "Compound remaining (0 min = 100)", "setting": "human recombinant CYP3A4; Incubation time (minutes) 30", "result": 90.1}, {"measurement": "Compound remaining (0 min = 100)", "setting": "human recombinant CYP3A4; Incubation time (minutes) 45", "result": 91.5}, {"measurement": "Compound remaining (0 min = 100)", "setting": "human recombinant CYP2C9; Incubation time (minutes) 0", "result": 100}, {"measurement": "Compound remaining (0 min = 100)", "setting": "human recombinant CYP2C9; Incubation time (minutes) 5", "result": 102}, {"measurement": "Compound remaining (0 min = 100)", "setting": "human recombinant CYP2C9; Incubation time (minutes) 15", "result": 100}, {"measurement": "Compound remaining (0 min = 100)", "setting": "human recombinant CYP2C9; Incubation time (minutes) 30", "result": 103}, {"measurement": "Compound remaining (0 min = 100)", "setting": "human recombinant CYP2C9; Incubation time (minutes) 45", "result": 111}, {"measurement": "Compound remaining (0 min = 100)", "setting": "human recombinant CYP2D6; Incubation time (minutes) 0", "result": 100}, {"measurement": "Compound remaining (0 min = 100)", "setting": "human recombinant CYP2D6; Incubation time (minutes) 5", "result": 105}, {"measurement": "Compound remaining (0 min = 100)", "setting": "human recombinant CYP2D6; Incubation time (minutes) 15", "result": 101}, {"measurement": "Compound remaining (0 min = 100)", "setting": "human recombinant CYP2D6; Incubation time (minutes) 30", "result": 105}, {"measurement": "Compound remaining (0 min = 100)", "setting": "human recombinant CYP2D6; Incubation time (minutes) 45", "result": 106}, {"measurement": "role in oxidative metabolism", "setting": "human recombinant CYP3A5; 1 µM, 45 min", "result": "responsible for the oxidative metabolism"}, {"measurement": "Compound remaining (0 min = 100)", "setting": "human recombinant CYP3A5; Incubation time (minutes) 0", "result": 100}, {"measurement": "Compound remaining (0 min = 100)", "setting": "human recombinant CYP3A5; Incubation time (minutes) 5", "result": 101}, {"measurement": "Compound remaining (0 min = 100)", "setting": "human recombinant CYP3A5; Incubation time (minutes) 15", "result": 92.7}, {"measurement": "Compound remaining (0 min = 100)", "setting": "human recombinant CYP3A5; Incubation time (minutes) 30", "result": 91.6}, {"measurement": "Compound remaining (0 min = 100)", "setting": "human recombinant CYP3A5; Incubation time (minutes) 45", "result": 93.9}, {"measurement": "Compound remaining (0 min = 100)", "setting": "human recombinant CYP1A2; Incubation time (minutes) 0", "result": 100}, {"measurement": "Compound remaining (0 min = 100)", "setting": "human recombinant CYP1A2; Incubation time (minutes) 5", "result": 98.3}, {"measurement": "Compound remaining (0 min = 100)", "setting": "human recombinant CYP1A2; Incubation time (minutes) 15", "result": 100}, {"measurement": "Compound remaining (0 min = 100)", "setting": "human recombinant CYP1A2; Incubation time (minutes) 30", "result": 98.6}, {"measurement": "Compound remaining (0 min = 100)", "setting": "human recombinant CYP1A2; Incubation time (minutes) 45", "result": 102}]}]}
